{"source": "paper PMC3169566", "about": "“Rationally Designed Interfacial Peptides Are Efficient In Vitro Inhibitors of HIV-1 Capsid Assembly with Antiviral Activity” (PLoS ONE, 2011)", "key": {"[1]": {"molecular_target": "T1, HIV-1 capsid protein CA (Human immunodeficiency virus type 1 group M subtype B, UniProt P04591)", "T1 construct": "CA protein and the isolated CTD (either unlabelled or labelled) were purified as described previously; made in house", "assay": "CA polymerization in vitro (turbidity at 350 nm) with Ficoll-70 crowding agent", "format": "biochemical", "settings": "20 µM CA", "description": "Assembly reactions were carried out as described previously, [53] with some modifications. In general, the polymerization mixtures contained 50 mM sodium phosphate buffer pH 7.4, 2.25 M NaCl, 20 µM CA, and 100 g/l Ficoll-70 (GE HealthCare) as a macromolecular crowding agent. Where indicated, Ficoll-70 was omitted and the final CA concentration was raised to 46 µM. The experiments were initiated by introducing an appropriate volume of a CA solution in 50 mM phosphate buffer into a spectrophotometer cuvette (10-mm pathlength, 20 mm^2 internal section), and the assembly reaction was triggered by adding the appropriate volume of a solution containing 4 M NaCl, 179 g/l Ficoll-70 in 50 mM sodium phosphate buffer pH 7.4, to get the final concentrations desired for each component in a final volume of 500 µl, followed by rapid mixing by repeated inversion of the cell. The pH of the final reaction mixture was checked in a test sample. For inhibition assays, CA was mixed with the appropriate amounts of the peptides, and incubated for 30 minutes before triggering the reaction as indicated above. The time-dependent increase in the optical density at 350 nm as a measure of the light scattered by the assembled particles was monitored at 25°C using a UV-1603 spectrophotometer (Shimadzu, Japan), with data points collected every six seconds. Traces of the variation in the turbidity were analyzed as described previously, [53]."}, "[2]": {"test_system": "HIV-1 strain HXB2", "assay": "Inhibition of HIV-1 production and infection in cultured cells (p24 antigen)", "format": "cell-based", "settings": "U87-CD4-CXCR4 cells, Chariot-mediated transport", "description": "U87-CD4-CXCR4 cells from cultured monolayers were collected using 0.25% trypsin and resuspended in DMEM supplemented with 10% FBS (without antibiotics). Cells were seeded in 96-well plates at a density of 3.5×10^4 cells/well and incubated for 24 h. Then, the cells were incubated as described above with mixtures of the corresponding peptides and the Chariot peptide at the appropriate concentrations. After three hours of incubation, the cells were washed with PBS and infected with HIV-1 at a multiplicity of infection of 0.0015 (0.0015 TCID50/cell). After incubation for 2 h at 37°C, the cells were washed with PBS and DMEM supplemented with 10% FBS, 0.5 mg/ml geneticin and 1 µg/ml puromycin were added, and the infected cells were further incubated at 37°C. Viral replication was quantified by measuring HIV-1 CA (p24 antigen) production in the culture supernatant 72 h after infection, using an enzyme-linked immunoassay (INNOTEST HIV-antigen, Innogenetics)."}, "[3]": {"test_system": "U87-CD4-CXCR4 cells", "assay": "Transport of peptides into cells (fluorescence microscopy, flow cytometry)", "format": "cell-based, Human", "settings": "rhodamine-labelled peptides in complex with Chariot 1:1, 3 h at 37°C", "description": "To transport the peptides into NB324K or U87-CD4-CXCR4 cells a commercial cell-penetrating peptide (Chariot, Active Motif) was used, according to the manufacturer's recommendations. For fluorescence microscopy analyses, Chariot-peptide binding was accomplished by incubating a mixture containing between 5 µg and 50 µg of either FITC-labelled peptide or rhodamine-labelled peptide and the Chariot peptide at a 1∶1 molar ratio in 100 µl aliquots. Each 100 µl aliquot of the preincubated mixture was added to one well of a 24-well plate containing NB324K or U87-CD4-CXCR4 seeded the previous day (5·10^4 and 1.5·10^5 cells/well, respectively) and 100 µl of serum-free DMEM medium were added. The cells were incubated for 1–3 h, 800 µl DMEM containing 10% FBS were added, and incubation was continued for 1 h. Cells were fixed with a 1∶1 methanol∶acetone solution, their nucleus were stained with 4′,6-diamidino-2-phenylindol dihydrochloride (DAPI, Calbiochem), and cells were examined and imaged using an Axiovert200 (Zeiss) fluorescence microscope and/or a LSM-510 (Zeiss) confocal fluorescence microscope.\nFITC-labelled peptides were transported into NB324K or U87-CD4-CXCR4 cells as described above. […] The resuspended cells were analyzed in a FACSCalibur flow cytometer (Becton Dickinson, USA)."}, "[4]": {"test_system": "U87-CD4-CXCR4 cells", "settings": "without cell-penetrating peptide; cited from earlier work"}, "[5]": {"molecular_target": "T2, CTD (C-terminal domain of HIV-1 capsid protein CA) (Human immunodeficiency virus type 1 group M subtype B, UniProt P04591)", "T2 construct": "CA protein and the isolated CTD (either unlabelled or labelled) were purified as described previously; made in house", "assay": "CTD binding by fluorescence titration", "settings": "20 µM wild-type dimeric CTD, 25°C, 50 mM phosphate buffer pH 7.0, 1:1 binding isotherm, read-out: CTD-binding K D", "description": "Spectra were collected on a Cary Eclipse spectrofluorimeter (Varian, CA, USA). A concentration of 20 µM CTD and increasing peptide concentrations were used for titration experiments carried out at 25°C in 50 mM phosphate buffer pH 7.0. Excitation wavelength was 280 nm or 295 nm, and emission fluorescence was collected between 300 nm and 400 nm. The excitation and emission slits were set to 5 nm. The response time was 1 s. The dissociation constant of each complex was calculated by fitting the changes observed either in: (i) the fluorescence intensity at a particular wavelength; or (ii) the value of the average energy <λ> [42] for a fixed CTD concentration versus the concentration of added peptide as described."}, "[6]": {"assay": "Solubility under the conditions of the NMR experiments", "format": "physicochemical", "settings": "aqueous buffer, long incubations at a relatively high temperature, 50 mM phosphate buffer pH 7.0, read-out: Concentration at which the peptide remained fully soluble", "description": "NMR spectra were acquired at 20°C on a Bruker Avance DRX-500 spectrometer (Bruker GmbH, Germany) equipped with a triple resonance probe and z-pulse field gradients. Sodium trimethylsilyl [2,2,3,3-^2H4] propionate (Sigma) was used as the internal chemical shift reference in the homonuclear experiments. All experiments were carried out in 50 mM phosphate buffer pH 7.0. Assignments of the heteronuclear single quantum coherence (HSQC) NMR spectra were those previously obtained for the monomeric CTD [43], [44].\nWe first analyzed whether the CAC1-derived peptides CAC1C and CAC1M had any tendency to self-associate. […] The hydrodynamic radius (Rh) of the three peptides was similar (Table 1)."}, "[7]": {"settings": "peptide:CA molar ratio of 5, 100 g/l Ficoll-70"}}, "note": "Peptide text beside a SMILES is read from it.", "data": [{"molecule": "ITFEDLLDYYGP [CAI]", "values": [{"measurement": "Inhibition of in vitro assembly of HIV-1 capsid-like particles, single inhibitor", "setting": "[1]; 100 g/l Ficoll-70, 2.25 M NaCl, pH 7.4, 25°C, 30 min preincubation, inhibitor:CA molar ratios up to 10 (CAI 0.1-0.5)", "value": "very efficient"}, {"measurement": "Inhibitory activity of single peptides on HIV-1 production ex vivo", "setting": "[2]; MOI 0.0015, p24 at 72 h, H4 tested up to close to 2 mM", "value": "at most a weak inhibitory activity"}, {"measurement": "Peptide concentration required for weak inhibitory activity on HIV-1 production ex vivo", "setting": "[2]; p24 at 72 h", "value": "> 1", "unit": "mM"}, {"measurement": "Chariot-mediated transport of peptides into HIV-1-susceptible cells", "setting": "[3]", "value": "had been achieved"}, {"measurement": "Ability of the peptide to penetrate cells", "setting": "[4]", "value": "unable to penetrate cells"}]}, {"molecule": "CSCC[C@H](NC(=O)[C@H](Cc1c[nH]c2ccccc12)NC(=O)[C@H](C)NC(=O)[C@H](CCCCN)NC(=O)[C@@H](NC(=O)[C@H](CO)NC(=O)[C@H](CO)NC(=O)[C@H](C)NC(=O)[C@H](C)NC(=O)[C@H](CO)NC(=O)[C@H](CCC(=O)O)NC(=O)[C@@H](N)CO)C(C)C)C(=O)N[C@H](C(=O)N[C@@H](CCC(=O)O)C(=O)N[C@H](C(=O)N[C@@H](CC(C)C)C(=O)N[C@@H](CC(C)C)C(=O)N[C@H](C(=O)N[C@@H](C)C(=O)N[C@@H](CC(N)=O)C(=O)N[C@H](C(=O)N[C@@H](CO)C(=O)N[C@@H](CO)C(N)=O)[C@@H](C)O)C(C)C)[C@@H](C)O)[C@@H](C)O", "note": "[CAC1M] (H-SESAASSVKAWMTETLLVANTSS-NH2)", "values": [{"measurement": "Kd", "setting": "[5]", "value": "8 ± 1", "unit": "µM"}, {"measurement": "solubility", "setting": "[6]", "value": "≥ 200", "unit": "µM"}, {"measurement": "Higher reduction in polymerization rate compared to CAC1", "setting": "[1]; [7]", "value": "~30", "unit": "%"}, {"measurement": "Higher reduction in total capsid production compared to CAC1", "setting": "[1]; [7]", "value": "about 20%"}, {"measurement": "Chariot-mediated transport of peptides into HIV-1-susceptible cells", "setting": "[3]", "value": "had been achieved"}]}, {"molecule": "CSCC[C@H](NC(=O)[C@H](Cc1c[nH]c2ccccc12)NC(=O)[C@H](C)NC(=O)[C@H](CCCCN)NC(=O)[C@@H](NC(=O)[C@H](CO)NC(=O)[C@H](CO)NC(=O)[C@H](CO)NC(=O)[C@H](C)NC(=O)[C@H](CO)NC(=O)[C@@H](N)CCC(=O)O)C(C)C)C(=O)N[C@H](C(=O)N[C@@H](CCC(=O)O)C(=O)N[C@H](C(=O)N[C@@H](CC(C)C)C(=O)N[C@@H](CC(C)C)C(=O)N[C@H](C(=O)N[C@@H](CCC(N)=O)C(=O)N[C@@H](CC(N)=O)C(=O)N[C@@H](C)C(N)=O)C(C)C)[C@@H](C)O)[C@@H](C)O", "note": "[CAC1C] (H-ESASSSVKAWMTETLLVQNA-NH2)", "values": [{"measurement": "Kd", "setting": "[5]", "value": "19 ± 8", "unit": "µM"}, {"measurement": "solubility", "setting": "[6]", "value": "≥ 200", "unit": "µM"}]}]}
